Results taken from patent US20080194585A1, “Fungicidal Pyrazine Derivatives” (priority 2005, published 2008).
Marks after values point to notes of the source that are not given here.

What was measured:
Rhizoctonia oryzae = test: Test G: turf brown patch, preventive spray on creeping bent grass seedlings; settings: for Test G disease control rating: 200 ppm, 100 = 100% disease control, 0 = no control; for pest or weed control at 200 ppm: Waitea circinata, in Agrostis stolonifera, topical, 144 h, read-out: Test G disease control rating, 200 ppm
Description: (the causal agent of turf brown patch) and incubated in a saturated atmosphere at 27° C. for 24 h, and then moved to a growth chamber at 27° C. for 5 days, after which disease ratings were made.

Septoria tritici = test: Test J: wheat leaf blotch, preventive spray on wheat seedlings; type: in vivo
Description: A dash (-) indicates no test results.

Plasmopara viticola = test: Test D: grape downy mildew, spray after inoculation of grape seedlings; type: in vivo; settings: 200 ppm; for Test D disease control rating: 100 = 100% disease control, 0 = no control; for pest or weed control at 200 ppm: Plasmopara viticola, 168 h, read-out: Test D disease control rating
Description: Upon removal, disease ratings were made. […] A dash (-) indicates no test results.

Sclerotinia sclerotiorum = test: Test C: cucumber white mold, preventive spray on cucumber seedlings; settings: for Test C disease control rating: 200 ppm, 100 = 100% disease control, 0 = no control; for pest or weed control at 200 ppm: Sclerotinia sclerotiorum, in Cucumis sativus, 168 h, read-out: Test C disease control rating, 200 ppm
fusarium graminearium = test: Test I: wheat head scab, preventive spray on wheat seedlings; settings: for Test I disease control rating: 200 ppm, 100 = 100% disease control, 0 = no control; for pest or weed control at 200 ppm: Fusarium, in Triticum aestivum, topical, 192 h, read-out: Test I disease control rating, 200 ppm
Description: (the causal agent of wheat head scab) and incubated in a saturated atmosphere at 20° C. for 72 h, and then moved to a growth chamber at 22° C. for 5 days, after which disease ratings were made.

[1] = tested on: Erysiphe graminis f. sp. tritici; test: Test L: wheat powdery mildew, preventive spray on wheat seedlings; settings: for Test L disease control rating: 200 ppm, 100 = 100% disease control, 0 = no control; for pest or weed control at 200 ppm: Blumeria graminis, in Triticum aestivum, 168 h, read-out: Test L disease control rating, 200 ppm
Pythium aphanidermatum = test: Test A: bluegrass pythium blight, preventive spray on bluegrass seedlings; settings: for Test A disease control rating: 200 ppm
Botrytis cinerea = test: Test E: tomato botrytis, preventive spray on tomato seedlings; settings: for Test E disease control rating: 200 ppm, 100 = 100% disease control, 0 = no control; for pest or weed control at 200 ppm: Botrytis cinerea, in Solanum lycopersicum, topical, 72 h, read-out: Test E disease control rating
[2] = tested on: Colletotrichum orbiculare; test: Test B: cucumber Colletotrichum anthracnose, preventive spray on cucumber seedlings; settings: for Test B disease control rating: 200 ppm, 100 = 100% disease control, 0 = no control; for pest or weed control at 200 ppm: Colletotrichum orbiculare, in Cucumis sativus, 144 h, read-out: Test B disease control rating, 200 ppm
[3] = tested on: Puccinia recondita f. sp. tritici; test: Test K: wheat leaf rust, preventive spray on wheat seedlings; settings: for Test K disease control rating: 200 ppm, 100 = 100% disease control, 0 = no control; for pest or weed control at 200 ppm: Puccinia recondita, in Triticum aestivum, 192 h, read-out: Test K disease control rating
Phytophthora infestans = test: whole plant or invertebrate; type: in vivo; settings: for Test F disease control rating: 200 ppm
Septoria nodorum = test: Test H: wheat glum blotch, preventive spray on wheat seedlings; settings: for Test H disease control rating: 200 ppm, 100 = 100% disease control, 0 = no control; for pest or weed control at 200 ppm: Parastagonospora nodorum, in Triticum aestivum, topical, 168 h, read-out: Test H disease control rating, 200 ppm
Description: (the causal agent of wheat glum blotch) and incubated in a saturated atmosphere at 20° C. for 48 h, and then moved to a growth chamber at 22° C. for 5 days, after which disease ratings were made.

[4] = 200 ppm, 100 = 100% disease control, 0 = no control
[5] = 100 = 100% disease control, 0 = no control

SMILES: CCC(C)Cn1c(-c2ccc(F)cc2Cl)c(Cl)nc(-n2ccc(Br)n2)c1=O (racemic) [compound 259]
- Test G disease control rating (Rhizoctonia oryzae): 16%
- Test J disease control rating (Septoria tritici; [4]): 100%
- Test D disease control rating (Plasmopara viticola): 0%
- Test C disease control rating (Sclerotinia sclerotiorum): 0%
- Test I disease control rating (fusarium graminearium): 0%
- Test L disease control rating [1]: 59%
- Test A disease control rating (Pythium aphanidermatum; [5]): 82%
- Test E disease control rating (Botrytis cinerea): 100%
- Test B disease control rating [2]: 94%
- Test K disease control rating [3]: 89%
- Test F disease control rating (Phytophthora infestans; [5]): 0%
- Test H disease control rating (Septoria nodorum): 0%

SMILES: CCC(C)Cn1c(-c2ccc(F)cc2Cl)c(Cl)nc(-n2cc(Br)c(C)n2)c1=O (racemic) [compound 260]
- Test G disease control rating (Rhizoctonia oryzae): 0%
- Test J disease control rating (Septoria tritici; [4]): 97%
- Test D disease control rating (Plasmopara viticola): 0%
- Test C disease control rating (Sclerotinia sclerotiorum): 0%
- Test I disease control rating (fusarium graminearium): 0%
- Test L disease control rating [1]: 50%
- Test A disease control rating (Pythium aphanidermatum; [5]): 0%
- Test E disease control rating (Botrytis cinerea): 99%
- Test B disease control rating [2]: 9%
- Test K disease control rating [3]: 80%
- Test F disease control rating (Phytophthora infestans; [5]): 0%
- Test H disease control rating (Septoria nodorum): 0%

SMILES: CCC(C)Cn1c(-c2ccc(F)cc2Cl)c(Cl)nc(-n2ccc(C(OC)OC)n2)c1=O (racemic) [compound 261]
- Test G disease control rating (Rhizoctonia oryzae): 0%
- Test J disease control rating (Septoria tritici; [4]): 100%
- Test D disease control rating (Plasmopara viticola): 40%
- Test C disease control rating (Sclerotinia sclerotiorum): 83%
- Test I disease control rating (fusarium graminearium): 0%
- Test L disease control rating [1]: 98%
- Test A disease control rating (Pythium aphanidermatum; [5]): 0%
- Test E disease control rating (Botrytis cinerea): 100%
- Test B disease control rating [2]: 100%
- Test K disease control rating [3]: 100%
- Test F disease control rating (Phytophthora infestans; [5]): 0%
- Test H disease control rating (Septoria nodorum): 99%

SMILES: CC(C)Cn1c(-c2c(F)cccc2F)c(Cl)nc(-c2ccccn2)c1=O [Compound 2, 5-Chloro-6-(2,6-difluorophenyl)-1-(2-methylpropyl)-3-(2-pyridinyl)-2(1H)-pyrazinone]
- pest or weed control at 200 ppm (Rhizoctonia oryzae): 100%
- pest or weed control at 200 ppm (Septoria tritici; Zymoseptoria tritici, 528 h, 200 ppm, read-out: Test J disease control rating): 99%
- pest or weed control at 200 ppm (Plasmopara viticola): 77%
- pest or weed control at 200 ppm (Sclerotinia sclerotiorum): 97%
- pest or weed control at 200 ppm (fusarium graminearium): 97%
- pest or weed control at 200 ppm [1]: 100%
- pest or weed control at 200 ppm (Pythium aphanidermatum; Pythium aphanidermatum, 120 h, read-out: Test A disease control rating): 38%
- pest or weed control at 200 ppm (Botrytis cinerea): 100%
- pest or weed control at 200 ppm [2]: 100%
- pest or weed control at 200 ppm [3]: 100%
- pest or weed control at 200 ppm (Phytophthora infestans; Phytophthora infestans, in Solanum lycopersicum, topical, 144 h, read-out: Test F disease control rating): 0%
- pest or weed control at 200 ppm (Septoria nodorum): 100%

SMILES: CC(C)Cn1c(-c2ccc(F)cc2Cl)c(Cl)nc(-n2cccn2)c1=O [Compound 53, 5-Chloro-6-(2-chloro-4-fluorophenyl)-1-(2-methylpropyl)-3-(1H-pyrazol-1-yl)-2(1H)-pyrazinone]
- pest or weed control at 200 ppm (Rhizoctonia oryzae): 82%
- Test J disease control rating (Septoria tritici; 40 ppm (*)): 100* %
- pest or weed control at 200 ppm (Plasmopara viticola): 0%
- pest or weed control at 200 ppm (Sclerotinia sclerotiorum): 99%
- pest or weed control at 200 ppm (fusarium graminearium): 90%
- pest or weed control at 200 ppm [1]: 99%
- Test A disease control rating (Pythium aphanidermatum): 0%
- pest or weed control at 200 ppm (Botrytis cinerea): 100%
- pest or weed control at 200 ppm [2]: 100%
- pest or weed control at 200 ppm [3]: 100%
- Test F disease control rating (Phytophthora infestans): 0%
- pest or weed control at 200 ppm (Septoria nodorum): 100%
